# Literature values, collected in patent US6579860B1, “Interleukin-6 production inhibitors” (Toray Industries, Inc., priority 1998, dated 2003).
# Tested on: mouse macrophage cells
# Details: Pannanen N. et al., Pharmaceutical Research 12(6)
row,Structure (SMILES),effect on cytokine production/release
1,O=P(O)(O)C(Cl)(Cl)P(=O)(O)O [clodronate],suppresses cytokine production
2,CC(O)(P(=O)(O)O)P(=O)(O)O [etidronate],does not have such an effect
3,NCCC(O)(P(=O)(O)O)P(=O)(O)O [pamidronate],enhances release of cytokine
